# Patent publication US12350473B2 (priority 2018, dated 2025)
# Where two headings read alike, the source gives them in different places.
# Assays:
# [1] = in vivo; cited from earlier work
# [2] = in vivo, cited from earlier work
# [3] = tested on: quadriceps femoris muscle injection site; assay: Example 13: GLP local tolerance study of naloxone following intramuscular injection; assay type: in vivo, New Zealand White Rabbits; settings: for injection site findings: 7-day observation
# Protocol: Mortality and clinical observations were recorded twice daily. […] On Day 8, the animals were euthanized and subject to a necropsy examination. A full tissue list was preserved, but only the test site and contralateral site in the other quadriceps femoris were processed for histopathological evaluation.
# [4] = tested on: opioid overdose; assay: Examples 10-12: high dose naloxone injection in emergency room opioid overdose cases; assay type: in vivo, human
# Protocol: (§1) A person is admitted to a local emergency room suffering from an opioid overdose. A high dose naloxone composition is administered by injection to the person.
# as §1
# [5] = tested on: morphine effects; settings: cited from earlier work
# [6] = tested on: buprenorphine intravenous induced respiratory depression; settings: 5 mg and 10 mg naloxone intravenously; cited from earlier work
# [7] = tested on: respiratory depression; settings: IV morphine […] reversed with naloxone 0.4 mg; cited from earlier work
# [8] = in vivo; cited from earlier work; remark: listed apart in the source
structure (smiles),measurement,setting,value
CC(=O)Oc1ccc2c3c1O[C@H]1[C@@H](OC(C)=O)C=C[C@H]4[C@@H](C2)N(C)CC[C@@]341 [heroin],half-life,[1],3 to 7 h
CN1CC[C@]23c4c5ccc(O)c4O[C@H]2[C@@H](O)C=C[C@H]3[C@H]1C5 [morphine],analgesic onset,[2]; iv,6 min
same,duration of action,[2]; iv,96 min
same,duration of action,[2],Longer
C=CCN1CC[C@]23c4c5ccc(O)c4O[C@H]2C(=O)CC[C@@]3(O)[C@H]1C5 [naloxone],erythema at injection site,"[3]; males receiving 15 mg/animal, attributed to the shaving procedure",low incidence of slight erythema
same,histology: effect on the examined tissue,"[3]; rabbits, 5 mg/0.5 mL three times (15 mg total dose), Day 8 necropsy",no evidence
same,injection site findings,"[3]; rabbits, IM injection in 3 sites each 2 mg/0.4 mL (total 6 mg)",no injection site findings attributed to treatment
same,injection site findings,"[3]; rabbits, IM injection in 3 sites each 5 mg/0.5 mL (total 15 mg)",no injection site findings attributed to treatment
same,outcome of opioid overdose,"[4]; Example 10: person, 5 mg in a single injection",recovers from the overdose event
same,outcome of opioid overdose,"[4]; Example 11: person, 10 mg in a single injection",recovers from the overdose event
same,outcome of opioid overdose,"[4]; Example 12: person, 20 mg in a single injection",recovers from the overdose event
same,reversal of morphine effects at the 30 mg dose,[5]; 30 mg i.m. naloxone,no additional reversal
same,naloxone dose up to which reversal of the morphine effects was dose related,"[5]; intra-muscular, 70 kg subject, morphine 18 or 30 mg/70 kg i.m.",up to 10 mg
same,reversal of opioid effects,[6],Complete reversal
same,return to severe respiratory depression after reversal,[7],≤ 30 min
same,distribution half-life,[8],4.7 min
same,elimination half-life (average),[8],65 min
